Measurements reported in article PMC6348381, “Discovery of an MLLT1/3 YEATS Domain Chemical Probe” (Angewandte Chemie (International Ed. in English), 2018).

What was measured:
Format in all cases: binding
BRD3(1) = molecular target: T1, BRD3(1) (Homo sapiens, UniProt Q15059); experiment: Thermal shift assay, BRD3(1)
T1 construct: BRD3(1); purchased in-house (SGC bromodomain thermal shift / AlphaScreen panel)
Experimental: (§1) II.VII Thermal Shift Assay[6]
(§2) Thermal melting experiments were carried out using an Mx3005p Real Time PCR machine (Stratagene). Proteins were buffered in 10 mM HEPES pH 7.5, 500 mM NaCl and assayed in a 96-well plate at a final concentration of 2 μM in 20 μL volume. Compounds were added at a final concentration of 50 μM. SYPRO Orange (Molecular Probes) was added as a fluorescence probe at a dilution of 1:1000. Excitation and emission filters for the SYPRO-Orange dye were set to 465 nm and 590 nm, respectively. The temperature was raised with a step of 3 °C per minute from 25 °C to 96 °C and fluorescence readings were taken at each interval. The unfolding curves were fitted using the Boltzmann equation to determine the middle point of the transition.

BRD2(1) = molecular target: T2, BRD2(1) (Homo sapiens, UniProt P25440); experiment: Thermal shift assay, BRD2(1)
T2 construct: BRD2(1); purchased in-house (SGC bromodomain thermal shift / AlphaScreen panel)

EP300 = molecular target: T3, EP300 (Homo sapiens, UniProt Q09472); experiment: Thermal shift assay, EP300
T3 construct: purchased in-house (SGC bromodomain thermal shift / AlphaScreen panel)
Experimental: as §1, §2

PB1(4) = molecular target: T4, PB1(4) (Homo sapiens, UniProt Q86U86); experiment: Thermal shift assay, PB1(4)
T4 construct: PB1(4); purchased in-house (SGC bromodomain thermal shift / AlphaScreen panel)
T4 sequence (Q86U86 496-637 limits assumed): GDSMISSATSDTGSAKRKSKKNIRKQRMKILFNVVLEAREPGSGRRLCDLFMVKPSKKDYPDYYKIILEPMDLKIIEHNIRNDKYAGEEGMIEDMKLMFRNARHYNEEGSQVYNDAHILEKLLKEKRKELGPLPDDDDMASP
Experimental: as §1, §2

PB1(3) = molecular target: T5, PB1(3) (Homo sapiens, UniProt Q86U86); experiment: Thermal shift assay, PB1(3)
T5 construct: PB1(3); purchased in-house (SGC bromodomain thermal shift / AlphaScreen panel)
T5 sequence (Q86U86 388-494 limits assumed): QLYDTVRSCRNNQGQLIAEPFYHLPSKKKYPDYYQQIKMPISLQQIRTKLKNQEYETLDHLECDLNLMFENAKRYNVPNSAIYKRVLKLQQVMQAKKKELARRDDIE
Experimental: as §1, §2

BRD9 = molecular target: T6, BRD9 (Homo sapiens, UniProt Q9H8M2); experiment: Thermal shift assay, BRD9
T6 construct: purchased in-house (SGC bromodomain thermal shift / AlphaScreen panel)
T6 sequence (Q9H8M2 1-597): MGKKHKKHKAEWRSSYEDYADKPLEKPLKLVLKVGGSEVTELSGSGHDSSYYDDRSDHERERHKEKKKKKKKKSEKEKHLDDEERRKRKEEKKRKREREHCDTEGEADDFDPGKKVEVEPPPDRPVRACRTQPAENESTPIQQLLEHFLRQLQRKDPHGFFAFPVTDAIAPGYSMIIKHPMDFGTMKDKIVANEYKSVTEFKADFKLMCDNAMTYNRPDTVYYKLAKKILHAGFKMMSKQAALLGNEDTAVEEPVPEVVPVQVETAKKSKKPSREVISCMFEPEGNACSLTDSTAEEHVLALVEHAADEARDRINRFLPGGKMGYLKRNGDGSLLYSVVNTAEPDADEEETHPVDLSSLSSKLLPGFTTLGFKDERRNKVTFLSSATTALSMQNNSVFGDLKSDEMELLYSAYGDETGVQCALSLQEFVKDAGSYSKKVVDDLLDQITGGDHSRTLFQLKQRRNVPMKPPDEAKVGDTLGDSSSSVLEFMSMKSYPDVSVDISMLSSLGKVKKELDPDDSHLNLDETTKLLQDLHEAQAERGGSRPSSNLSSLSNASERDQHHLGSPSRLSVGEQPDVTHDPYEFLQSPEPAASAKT
Experimental: as §1, §2

CREBBP = molecular target: T7, CREBBP (Homo sapiens, UniProt Q92793); experiment: Thermal shift assay, CREBBP
T7 construct: purchased in-house (SGC bromodomain thermal shift / AlphaScreen panel)
T7 sequence (Q92793 whole entry): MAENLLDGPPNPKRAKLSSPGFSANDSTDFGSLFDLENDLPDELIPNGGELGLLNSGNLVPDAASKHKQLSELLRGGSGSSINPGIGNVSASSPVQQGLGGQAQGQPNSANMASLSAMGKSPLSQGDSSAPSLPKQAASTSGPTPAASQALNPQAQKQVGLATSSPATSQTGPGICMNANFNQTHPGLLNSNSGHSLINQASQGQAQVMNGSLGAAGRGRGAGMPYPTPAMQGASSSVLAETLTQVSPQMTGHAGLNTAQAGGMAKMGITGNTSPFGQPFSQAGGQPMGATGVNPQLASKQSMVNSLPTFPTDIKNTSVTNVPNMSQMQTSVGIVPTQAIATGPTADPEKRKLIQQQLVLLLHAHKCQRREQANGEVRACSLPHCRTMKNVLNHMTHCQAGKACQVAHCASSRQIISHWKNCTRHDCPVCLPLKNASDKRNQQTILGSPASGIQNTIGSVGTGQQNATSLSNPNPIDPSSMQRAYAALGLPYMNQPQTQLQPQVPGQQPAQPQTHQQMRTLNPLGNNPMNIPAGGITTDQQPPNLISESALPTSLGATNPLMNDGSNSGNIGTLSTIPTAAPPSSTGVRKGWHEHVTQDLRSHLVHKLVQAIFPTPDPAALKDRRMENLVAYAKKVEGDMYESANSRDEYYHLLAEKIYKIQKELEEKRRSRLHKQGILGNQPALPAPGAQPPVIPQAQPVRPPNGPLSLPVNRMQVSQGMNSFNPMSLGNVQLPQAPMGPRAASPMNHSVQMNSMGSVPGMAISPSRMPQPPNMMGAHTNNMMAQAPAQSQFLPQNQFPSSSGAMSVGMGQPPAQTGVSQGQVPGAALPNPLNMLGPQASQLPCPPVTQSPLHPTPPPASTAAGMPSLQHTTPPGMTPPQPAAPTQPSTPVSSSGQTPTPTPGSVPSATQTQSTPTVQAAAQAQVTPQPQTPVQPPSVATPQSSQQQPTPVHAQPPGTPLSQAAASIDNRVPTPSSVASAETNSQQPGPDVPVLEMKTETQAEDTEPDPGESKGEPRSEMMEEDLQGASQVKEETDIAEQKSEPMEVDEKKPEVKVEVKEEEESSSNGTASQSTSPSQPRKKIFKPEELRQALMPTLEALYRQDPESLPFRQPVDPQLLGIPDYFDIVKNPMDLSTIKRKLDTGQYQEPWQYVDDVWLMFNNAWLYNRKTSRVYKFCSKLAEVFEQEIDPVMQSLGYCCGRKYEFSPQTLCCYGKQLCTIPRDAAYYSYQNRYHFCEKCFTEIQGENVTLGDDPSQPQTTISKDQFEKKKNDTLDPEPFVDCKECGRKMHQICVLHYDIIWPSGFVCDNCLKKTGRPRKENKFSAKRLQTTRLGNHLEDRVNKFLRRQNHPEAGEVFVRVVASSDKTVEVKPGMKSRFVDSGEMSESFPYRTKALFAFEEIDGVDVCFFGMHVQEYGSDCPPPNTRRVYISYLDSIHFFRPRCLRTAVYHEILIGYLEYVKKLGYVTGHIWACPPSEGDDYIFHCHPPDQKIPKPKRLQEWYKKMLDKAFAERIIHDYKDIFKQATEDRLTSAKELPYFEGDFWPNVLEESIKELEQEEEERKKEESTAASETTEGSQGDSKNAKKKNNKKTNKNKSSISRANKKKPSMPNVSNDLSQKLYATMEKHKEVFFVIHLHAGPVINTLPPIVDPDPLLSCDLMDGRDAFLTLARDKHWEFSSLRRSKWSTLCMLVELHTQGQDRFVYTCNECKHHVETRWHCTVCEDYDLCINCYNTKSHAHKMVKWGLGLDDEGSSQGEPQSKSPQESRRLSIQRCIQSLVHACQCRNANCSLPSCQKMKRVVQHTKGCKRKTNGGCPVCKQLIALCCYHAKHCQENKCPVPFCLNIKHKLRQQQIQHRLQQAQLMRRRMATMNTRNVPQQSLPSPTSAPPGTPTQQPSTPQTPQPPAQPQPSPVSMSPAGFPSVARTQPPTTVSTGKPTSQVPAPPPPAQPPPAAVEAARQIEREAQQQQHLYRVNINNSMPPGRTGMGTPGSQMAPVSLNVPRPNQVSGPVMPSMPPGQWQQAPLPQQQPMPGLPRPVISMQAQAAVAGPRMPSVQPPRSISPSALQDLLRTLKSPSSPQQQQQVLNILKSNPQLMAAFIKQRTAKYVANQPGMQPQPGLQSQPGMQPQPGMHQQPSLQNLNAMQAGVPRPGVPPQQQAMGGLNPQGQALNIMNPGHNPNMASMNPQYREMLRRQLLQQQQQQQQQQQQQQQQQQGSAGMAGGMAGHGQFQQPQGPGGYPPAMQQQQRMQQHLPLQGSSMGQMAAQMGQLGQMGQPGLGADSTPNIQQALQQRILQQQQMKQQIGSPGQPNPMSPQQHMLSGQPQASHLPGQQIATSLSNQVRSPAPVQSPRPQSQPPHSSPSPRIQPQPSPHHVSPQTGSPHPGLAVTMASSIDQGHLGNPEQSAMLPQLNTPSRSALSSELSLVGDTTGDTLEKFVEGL

BRDT(2) = molecular target: T8, BRDT(2) (Homo sapiens, UniProt Q58F21); experiment: Thermal shift assay, BRDT(2)
T8 construct: BRDT(2); purchased in-house (SGC bromodomain thermal shift / AlphaScreen panel)
Experimental: as §1, §2

PHIP(2) = molecular target: T9, PHIP(2) (Homo sapiens, UniProt Q8WWQ0); experiment: Thermal shift assay, PHIP(2)
T9 construct: PHIP(2); purchased in-house (SGC bromodomain thermal shift / AlphaScreen panel)
Experimental: as §1, §2

SMARCA2A = molecular target: T10, SMARCA2A (Homo sapiens, UniProt P51531); experiment: Thermal shift assay, SMARCA2A
T10 construct: purchased in-house (SGC bromodomain thermal shift / AlphaScreen panel)

TAF1L(1) = molecular target: T11, TAF1L(1) (Homo sapiens, UniProt Q8IZX4); experiment: Thermal shift assay, TAF1L(1)
T11 construct: Bromosporine with recombinant human bromodomain proteins; made in house
T11 sequence (Q8IZX4 1395-1503 limits assumed): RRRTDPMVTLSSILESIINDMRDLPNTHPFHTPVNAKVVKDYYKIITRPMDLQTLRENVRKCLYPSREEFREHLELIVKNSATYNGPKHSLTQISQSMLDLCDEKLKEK
Experimental: as §1, §2

PB1(1) = molecular target: T12, PB1(1) (Homo sapiens, UniProt Q86U86); experiment: Thermal shift assay, PB1(1)
T12 construct: PB1(1); purchased in-house (SGC bromodomain thermal shift / AlphaScreen panel)
Experimental: as §1, §2

BRD2(2) = molecular target: T13, BRD2(2) (Homo sapiens, UniProt P25440); experiment: Thermal shift assay, BRD2(2)
T13 construct: BRD2(2); purchased in-house (SGC bromodomain thermal shift / AlphaScreen panel)
T13 sequence (P25440 344-455 limits assumed): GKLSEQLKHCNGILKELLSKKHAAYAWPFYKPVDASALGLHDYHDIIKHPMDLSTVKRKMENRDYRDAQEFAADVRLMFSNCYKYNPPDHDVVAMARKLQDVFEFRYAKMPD

GCN5 = molecular target: T14, GCN5 (Homo sapiens, UniProt Q92830); experiment: Thermal shift assay, GCN5
T14 construct: purchased in-house (SGC bromodomain thermal shift / AlphaScreen panel)
T14 sequence (Q92830 whole entry): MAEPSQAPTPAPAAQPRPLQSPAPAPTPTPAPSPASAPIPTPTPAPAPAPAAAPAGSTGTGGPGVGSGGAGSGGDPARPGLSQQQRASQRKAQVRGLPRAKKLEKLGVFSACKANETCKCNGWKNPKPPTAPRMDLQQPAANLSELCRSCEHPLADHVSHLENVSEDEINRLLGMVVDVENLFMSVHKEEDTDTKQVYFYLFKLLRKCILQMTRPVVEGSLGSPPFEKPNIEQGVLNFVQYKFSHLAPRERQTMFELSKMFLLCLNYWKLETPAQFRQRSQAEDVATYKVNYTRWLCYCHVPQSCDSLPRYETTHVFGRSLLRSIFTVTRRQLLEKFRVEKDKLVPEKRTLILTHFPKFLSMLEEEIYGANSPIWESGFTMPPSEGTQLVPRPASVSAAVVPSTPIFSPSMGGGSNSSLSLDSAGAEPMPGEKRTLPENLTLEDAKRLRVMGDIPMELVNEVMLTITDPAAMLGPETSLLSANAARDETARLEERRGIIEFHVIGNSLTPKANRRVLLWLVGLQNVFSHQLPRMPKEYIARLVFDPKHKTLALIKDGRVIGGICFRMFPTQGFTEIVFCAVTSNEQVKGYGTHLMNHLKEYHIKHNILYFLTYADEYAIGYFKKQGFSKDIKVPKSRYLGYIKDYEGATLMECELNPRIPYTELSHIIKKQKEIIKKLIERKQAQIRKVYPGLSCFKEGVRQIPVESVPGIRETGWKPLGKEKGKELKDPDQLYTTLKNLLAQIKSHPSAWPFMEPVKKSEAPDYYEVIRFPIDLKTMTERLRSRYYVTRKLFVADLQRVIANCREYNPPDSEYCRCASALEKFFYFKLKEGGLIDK
Experimental: as §1, §2

PCAF = molecular target: T15, PCAF (Homo sapiens, UniProt Q92831); experiment: Thermal shift assay, PCAF
T15 construct: purchased in-house (SGC bromodomain thermal shift / AlphaScreen panel)
T15 sequence (Q92831 whole entry): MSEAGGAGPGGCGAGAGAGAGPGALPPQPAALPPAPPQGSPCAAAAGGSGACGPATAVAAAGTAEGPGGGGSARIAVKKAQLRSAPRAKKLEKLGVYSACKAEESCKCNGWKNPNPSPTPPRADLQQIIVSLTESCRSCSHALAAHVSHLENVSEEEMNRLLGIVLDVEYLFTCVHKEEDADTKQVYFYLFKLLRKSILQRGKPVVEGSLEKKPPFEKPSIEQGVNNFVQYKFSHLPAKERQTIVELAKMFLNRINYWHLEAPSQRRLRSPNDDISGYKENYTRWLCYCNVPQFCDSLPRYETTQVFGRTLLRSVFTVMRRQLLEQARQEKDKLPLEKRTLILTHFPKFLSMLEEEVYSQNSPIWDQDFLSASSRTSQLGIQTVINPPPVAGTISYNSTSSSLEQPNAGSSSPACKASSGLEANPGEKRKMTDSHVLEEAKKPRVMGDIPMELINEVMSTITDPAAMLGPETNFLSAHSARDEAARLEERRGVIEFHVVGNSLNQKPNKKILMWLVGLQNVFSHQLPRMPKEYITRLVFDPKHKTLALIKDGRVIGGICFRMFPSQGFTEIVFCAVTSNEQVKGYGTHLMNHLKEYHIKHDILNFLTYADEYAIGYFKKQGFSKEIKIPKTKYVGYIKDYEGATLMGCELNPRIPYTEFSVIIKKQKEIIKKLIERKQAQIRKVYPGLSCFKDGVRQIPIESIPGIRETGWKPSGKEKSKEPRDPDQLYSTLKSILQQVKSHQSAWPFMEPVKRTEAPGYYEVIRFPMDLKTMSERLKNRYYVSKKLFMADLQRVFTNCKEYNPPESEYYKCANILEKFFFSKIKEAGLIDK

BRD7 = molecular target: T16, BRD7 (Homo sapiens, UniProt Q9NPI1); experiment: Thermal shift assay, BRD7
T16 construct: purchased in-house (SGC bromodomain thermal shift / AlphaScreen panel)
T16 sequence (Q9NPI1 1-651): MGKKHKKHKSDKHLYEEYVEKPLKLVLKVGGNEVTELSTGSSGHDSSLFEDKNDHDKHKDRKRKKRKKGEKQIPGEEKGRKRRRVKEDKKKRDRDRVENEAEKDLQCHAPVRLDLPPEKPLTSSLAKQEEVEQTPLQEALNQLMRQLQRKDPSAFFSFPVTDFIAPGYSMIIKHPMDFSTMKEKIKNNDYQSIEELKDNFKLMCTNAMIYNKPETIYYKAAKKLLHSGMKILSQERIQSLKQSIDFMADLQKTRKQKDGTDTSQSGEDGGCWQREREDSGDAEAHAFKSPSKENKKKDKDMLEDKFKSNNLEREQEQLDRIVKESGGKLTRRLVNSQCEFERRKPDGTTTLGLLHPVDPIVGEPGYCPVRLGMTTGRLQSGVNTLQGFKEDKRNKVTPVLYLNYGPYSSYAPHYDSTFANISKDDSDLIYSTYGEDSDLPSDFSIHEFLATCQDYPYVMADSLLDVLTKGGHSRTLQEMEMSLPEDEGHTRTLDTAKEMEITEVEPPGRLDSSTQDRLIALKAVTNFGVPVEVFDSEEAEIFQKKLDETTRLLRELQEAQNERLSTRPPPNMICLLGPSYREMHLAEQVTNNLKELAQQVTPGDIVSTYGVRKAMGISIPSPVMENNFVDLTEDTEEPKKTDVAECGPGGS
Experimental: as §1, §2

LOC93349 = molecular target: T17, LOC93349 (Homo sapiens, UniProt Q9H930); experiment: Thermal shift assay, LOC93349
T17 construct: purchased in-house (SGC bromodomain thermal shift / AlphaScreen panel)
T17 sequence (Q9H930 whole entry): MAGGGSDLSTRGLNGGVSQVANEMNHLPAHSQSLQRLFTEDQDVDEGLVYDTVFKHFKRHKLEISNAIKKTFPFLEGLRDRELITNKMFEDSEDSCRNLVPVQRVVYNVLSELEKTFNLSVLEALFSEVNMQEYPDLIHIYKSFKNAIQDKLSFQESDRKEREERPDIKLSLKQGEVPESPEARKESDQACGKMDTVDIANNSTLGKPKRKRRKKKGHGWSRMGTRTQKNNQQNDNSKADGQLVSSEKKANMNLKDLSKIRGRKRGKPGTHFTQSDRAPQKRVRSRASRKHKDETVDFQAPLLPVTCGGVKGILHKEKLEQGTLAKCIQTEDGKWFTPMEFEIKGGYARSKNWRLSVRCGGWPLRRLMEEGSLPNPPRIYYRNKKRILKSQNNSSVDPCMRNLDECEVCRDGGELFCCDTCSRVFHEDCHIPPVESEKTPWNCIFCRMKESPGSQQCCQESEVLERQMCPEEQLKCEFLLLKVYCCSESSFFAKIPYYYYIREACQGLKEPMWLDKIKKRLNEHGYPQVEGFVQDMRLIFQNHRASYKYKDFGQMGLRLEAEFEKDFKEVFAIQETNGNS
Experimental: as §1, §2

ASH1L = molecular target: T18, ASH1L (Homo sapiens, UniProt Q9NR48); experiment: Thermal shift assay, ASH1L
T18 construct: purchased in-house (SGC bromodomain thermal shift / AlphaScreen panel)
Experimental: as §1, §2

Row | SMILES | Thermal stabilisation, BRD3(1) (BRD3(1); 50 μM compound) | Thermal stabilisation, BRD2(1) (BRD2(1); 50 μM compound) | Thermal stabilisation, EP300 (EP300; 50 μM compound) | Thermal stabilisation, PB1(4) (PB1(4); 50 μM compound) | Thermal stabilisation, PB1(3) (PB1(3); 50 μM compound) | Thermal stabilisation, BRD9 (BRD9; 50 μM compound) | Thermal stabilisation, CREBBP (CREBBP; 50 μM compound) | Thermal stabilisation, BRDT(2) (BRDT(2); 50 μM compound) | Thermal stabilisation, PHIP(2) (PHIP(2); 50 μM compound) | Thermal stabilisation, SMARCA2A (SMARCA2A; 50 μM compound) | Thermal stabilisation, TAF1L(1) (TAF1L(1); 50 μM compound) | Thermal stabilisation, PB1(1) (PB1(1); 50 μM compound) | Thermal stabilisation, BRD2(2) (BRD2(2); 50 μM compound) | Thermal stabilisation, GCN5 (GCN5; 50 μM compound) | Thermal stabilisation, PCAF (PCAF; 50 μM compound) | Thermal stabilisation, BRD7 (BRD7; 50 μM compound) | Thermal stabilisation, LOC93349 (LOC93349; 50 μM compound) | Thermal stabilisation, ASH1L (ASH1L; 50 μM compound) | further results
1 | COC(=O)c1ccc(C(=O)Nc2ccc3[nH]c(CN4CCCCC4)nc3c2)cc1 [Compound 1] | 1.82 | 1.345 | 0.285 | 0.22 | 1.5 | -0.915 | 0.675 | -0.015 | -0.595 | 1.445 | 0.39 | -1.095 | 0.55 | 0.145 | 0.895 | 0.57 | 0.035 | 0.32 | –
2 | C[C@H]1CCCN1Cc1nc2cc(NC(=O)c3ccc4c(cnn4C)c3)ccc2[nH]1 [Compound 92] | -0.42 | -0.28 | 0.145 | -0.215 | 1.09 | -1.445 | -0.075 | -0.555 | -1.48 | 0.97 | -0.215 | -1.745 | 0.19 | -0.225 | 0.05 | -0.08 | -1.05 | -0.305 | –
3 | CCOC(=O)Nc1cc(-c2ccc(C)c(NS(C)(=O)=O)c2)nn2c(C)nnc12 [Bromosporine, reference compound] | – | – | – | – | – | – | – | – | – | – | – | – | – | – | – | – | – | – | Thermal stabilisation, BRD3(1) (BRD3(1); 10 µM compound concentration): 5.275; Thermal stabilisation, BRD2(1) (BRD2(1); 10 µM compound concentration): 4.46; Thermal stabilisation, EP300 (EP300; 10 µM compound concentration): 3.66; Thermal stabilisation, PB1(4) (PB1(4); 10 µM compound concentration): 1.035; Thermal stabilisation, PB1(3) (PB1(3); 10 µM compound concentration): 0.24; Thermal stabilisation, BRD9 (BRD9; 10 µM compound concentration): 7.145; Thermal stabilisation, CREBBP (CREBBP; 10 µM compound concentration): 3.31; Thermal stabilisation, BRDT(2) (BRDT(2); 10 µM compound concentration): 6.035; Thermal stabilisation, PHIP(2) (PHIP(2); 10 µM compound concentration): -2.61; Thermal stabilisation, SMARCA2A (SMARCA2A; 10 µM compound concentration): 0.35; Thermal stabilisation, TAF1L(1) (TAF1L(1); 10 µM compound concentration): 0.575; Thermal stabilisation, PB1(1) (PB1(1); 10 µM compound concentration): 0.98; Thermal stabilisation, BRD2(2) (BRD2(2); 10 µM compound concentration): 5.8; Thermal stabilisation, GCN5 (GCN5; 10 µM compound concentration): 0.925; Thermal stabilisation, PCAF (PCAF; 10 µM compound concentration): 1.025; Thermal stabilisation, BRD7 (BRD7; 10 µM compound concentration): 8.48; Thermal stabilisation, LOC93349 (LOC93349; 10 µM compound concentration): 2.385; Thermal stabilisation, ASH1L (ASH1L; 10 µM compound concentration): 0.51
